According to patent publication US20220354894A1, “Cell Composition Comprising Radiolabled Mesenchymal Stem Cells, Use Thereof and Method for Preparing Radiolabeled Mesenchymal Stem Cells” (Boehringer Ingelheim Veterinary Medicine Belgium, priority 2019, published 2022):

Assays:
[1] = Whole body scintigraphy biodistribution after IV, IM, SC injection in dogs (Example 4); assay type: in vivo; details: dog
Description: Three different studies were performed. In a first study, the biodistribution of intravenously administrated equine peripheral blood-derived MSCs (ePB-MSCs) was evaluated in four dogs. In the second study, the biodistribution of intramuscularly and subcutaneously administrated ePB-MSCs was evaluated in four dogs. Finally, in a third study, the biodistribution of a higher dose of ePB-MSCs following intravenous administration was evaluated in three dogs.
Four healthy adult research dogs were included in the two first studies; three dogs from the second study were re-used for the third study. All dogs were purpose bred adult beagles (16-23 months). Two males and two females were included in the first two studies and one male and two female dogs were included in the third study. The dogs were housed in groups of 2, in a pen of 4 by 4 by 2 m (L×W×H) so permanent visual, olfactorial, tactile and auditive contact between dogs was possible. Toys were provided for the dogs to play with in their pen. Cleaning of the dog pens was performed daily. The floor was covered with wood shavings to improve lying comfort for the dogs. The animals were let out in dog runs to play and run for minimal 1 hour a day. After the study this minimal time was increased depending on the need of the dogs.
In the first study, each dog received two intravenous injections; first the dogs were injected with the control product: freshly eluted ^99mTc dissolved in DMEM and at least 7 days later they received a second injection with ^99mTc-labeled ePB-MSCs. For the second study, 4 injections were administered to each dog. The dogs first received an IM injection with the control product, next a SC with the control product, then an IM injection with the ^99mTc-labeled ePB-MSCs and finally a SC administration of the ^99mTc-labeled ePB-MSCs. At least 7 days separated each injection. In the third study, the three dogs received a single IV injection with ^99mTc-labeled ePB-MSCs.
The dogs were put under general anesthesia and positioned in sternal recumbency on the gamma camera before each injection. To obtain general anesthesia, the dogs were first sedated with dexmedetomidine (12-25 μg/kg IM), next induction was obtained with propofol (dosage on effect) and anesthesia was maintained with isoflurane 1.2-1.4% (on effect) in 100% oxygen following endotracheal intubation. The intravenous injection was administered through a 22-gauge catheter in one of the cephalic veins, the intramuscular injection was performed in the left quadriceps muscle and the subcutaneous injection was administered at the back of the neck.
A two-headed gamma camera, equipped with low energy high resolution collimators (GCA 7200 A; Toshiba) was used for the scintigraphic investigation. The whole body scan was obtained with the detectors of the SPECT scanner moving simultaneous dorsally and ventrally from head to tail of the dog over 10 minutes. All dogs were kept under general anesthesia during all the acquisitions. For all 3 studies, data collection of the first hour consisted of 6 successive acquisitions of each 10 minutes. The start of the first acquisition was simultaneous with injection of the radioactive compound and the dog remained in the same position for all 6 scans. Next, in the first study, total body scans (each lasting 10 minutes) were performed at 2 h, 4 h, 8 h, 12 h, 24 h and 36 h after placebo control and labeled ePB-MSCs administration using propofol (dosage on effect). For the second and the third study, 6 successive 10 minutes' total body scans performed during the first hour after injection were followed by total body scans (each lasting 10 minutes) at 6 h and 24 h after each injection. For all studies, a syringe with a known amount of radioactivity to calculate % injected dose (ID), was simultaneous scanned with the dog. Care was taken for the dog's re-positioning on the table, to avoid too much spatial deviation on the scans following the first hour scans. […]

[2] = Planar scintigraphy biodistribution after IV injection in healthy horses (Example 6); assay type: in vivo; details: horse
Text: Four healthy adult horses (2 neutered male and 2 female horses, 7 to 19 years old) from two different breeds (2 Belgian warmblood and 2 French Trotter) were included in this study. All animals underwent a full veterinary examination before being included in the study and were stalled at least 2 days prior to the start of the study. During the study, the animals were housed in individual stables of 3.5 by 4 (L×W) according to normal housing procedures with water ad libitum and hay twice a day. During the study, a daily general clinical examination was performed (day 0-3). All horses received a total of two IV injections; the first consisted of free ^99mTc dissolved in DMEM which served as control. The second injection was administered three days later and consisted of ^99mTc-labelled ePB-MSC.
For the IV injections of the horses, a 18 G catheter was placed in the left jugular vein of each horse and sedation was achieved using detomidine hydrochloride (Domidine 10 mg/mL; Dechra, The Netherlands) 0.01 mg/kg body weight and butorphanol tartrate (butomidor 10 mg/mL; AST farma BV, Oudewater, Germany) 0.01 mg/kg body weight IV When required, detomidine hydrochloride (Domidine 10 mg/mL; Dechra) was added during the scan with a maximum of 0.002 mg/kg. The horses stood straight with all four limbs using a table to stabilize the head. On day 0, all four horses were IV injected with free ^99mTc dissolved in DMEM. Consequently, on day 3, all horses were IV injected with ^99mTc-labelled ePB-MSCs dissolved in DMEM as described above. Planar scintigraphy was performed 1 h and 6 h post-injection for both injections using a gamma camera (Equine HR, Medical Imaging Electronics) (matrix: 128×128; acquisition time: 60 seconds per time frame (60 frames); collimator: low energy high resolution (140 KeV, 15% symmetrical window); field of view: 600×410 mm). Following body parts were scanned: head, thorax and abdomen starting with the head, left thorax and left abdomen and continuing with the right abdomen and right thorax.
Distribution of the ^99mTc labelled ePB-MSCs and free ^99mTc was subjectively assessed through the whole body using Multimodality software (Nuclear diagnostics, Sweden). Different organs of interests were manually delineated for each horse at each time point: the lungs, bladder, stomach, kidney, parotid gland and thyroid. Radioactive counts per pixel were calculated for each organ of interest, decay corrected and divided by the initial injected radioactivity in the whole body to obtain a relative uptake value.

- percentage of injected dose at injection site ([1]; IM, 10 min): 29.49%
- percentage of injected dose in bladder ([1]; IM, 10 min): 0.13%
- percentage of injected dose in heart ([1]; IM, 10 min): 0.45%
- percentage of injected dose in left salivary gland ([1]; IM, 10 min): 0.02%
- percentage of injected dose in lung ([1]; IM, 10 min): 1.06%
- percentage of injected dose in right salivary gland ([1]; IM, 10 min): 0.01%
- percentage of injected dose in stomach ([1]; IM, 10 min): 1.62%
- percentage of injected dose in thyroid ([1]; IM, 10 min): 0.05%
- percentage of injected dose at injection site ([1]; IM, 60 min): 3.63%
- percentage of injected dose in bladder ([1]; IM, 60 min): 3.51%
- percentage of injected dose in heart ([1]; IM, 60 min): 2.46%
- percentage of injected dose in left salivary gland ([1]; IM, 60 min): 1.03%
- percentage of injected dose in lung ([1]; IM, 60 min): 6.92%
- percentage of injected dose in right salivary gland ([1]; IM, 60 min): 0.99%
- percentage of injected dose in stomach ([1]; IM, 60 min): 17.36%
- percentage of injected dose in thyroid ([1]; IM, 60 min): 1.10%
- percentage of injected dose at injection site ([1]; IM, 6 hours): 0.19%
- percentage of injected dose in bladder ([1]; IM, 6 hours): 4.77%
- percentage of injected dose in heart ([1]; IM, 6 hours): 1.45%
- percentage of injected dose in left salivary gland ([1]; IM, 6 hours): 1.84%
- percentage of injected dose in lung ([1]; IM, 6 hours): 4.41%
- percentage of injected dose in right salivary gland ([1]; IM, 6 hours): 1.60%
- percentage of injected dose in stomach ([1]; IM, 6 hours): 17.25%
- percentage of injected dose in thyroid ([1]; IM, 6 hours): 1.15%
- percentage of injected dose at injection site ([1]; IM, 24 hours): 0.12%
- percentage of injected dose in bladder ([1]; IM, 24 hours): 5.08%
- percentage of injected dose in heart ([1]; IM, 24 hours): 0.69%
- percentage of injected dose in left salivary gland ([1]; IM, 24 hours): 2.47%
- percentage of injected dose in lung ([1]; IM, 24 hours): 2.14%
- percentage of injected dose in right salivary gland ([1]; IM, 24 hours): 2.09%
- percentage of injected dose in stomach ([1]; IM, 24 hours): 9.36%
- percentage of injected dose in thyroid ([1]; IM, 24 hours): 0.57%
- percentage of injected dose in bladder ([1]; IV, 10 min): 0.63%
- percentage of injected dose in heart ([1]; IV, 10 min): 2.79%
- percentage of injected dose in left salivary gland ([1]; IV, 10 min): 0.33%
- percentage of injected dose in liver ([1]; IV, 10 min): 2.93%
- percentage of injected dose in lung ([1]; IV, 10 min): 3.73%
- percentage of injected dose in right salivary gland ([1]; IV, 10 min): 0.33%
- percentage of injected dose in stomach ([1]; IV, 10 min): 4.84%
- percentage of injected dose in thyroid ([1]; IV, 10 min): 0.41%
- percentage of injected dose in bladder ([1]; IV, 60 min): 1.93%
- percentage of injected dose in heart ([1]; IV, 60 min): 1.61%
- percentage of injected dose in left salivary gland ([1]; IV, 60 min): 0.77%
- percentage of injected dose in liver ([1]; IV, 60 min): 2.07%
- percentage of injected dose in lung ([1]; IV, 60 min): 2.62%
- percentage of injected dose in right salivary gland ([1]; IV, 60 min): 0.72%
- percentage of injected dose in stomach ([1]; IV, 60 min): 9.77%
- percentage of injected dose in thyroid ([1]; IV, 60 min): 0.61%
- percentage of injected dose in bladder ([1]; IV, 6 hours): 2.42%
- percentage of injected dose in heart ([1]; IV, 6 hours): 1.45%
- percentage of injected dose in left salivary gland ([1]; IV, 6 hours): 1.31%
- percentage of injected dose in liver ([1]; IV, 6 hours): 1.73%
- percentage of injected dose in lung ([1]; IV, 6 hours): 1.97%
- percentage of injected dose in right salivary gland ([1]; IV, 6 hours): 0.88%
- percentage of injected dose in stomach ([1]; IV, 6 hours): 8.98%
- percentage of injected dose in thyroid ([1]; IV, 6 hours): 0.61%
- percentage of injected dose in bladder ([1]; IV, 24 hours): 2.71%
- percentage of injected dose in heart ([1]; IV, 24 hours): 0.54%
- percentage of injected dose in left salivary gland ([1]; IV, 24 hours): 1.34%
- percentage of injected dose in liver ([1]; IV, 24 hours): 0.99%
- percentage of injected dose in lung ([1]; IV, 24 hours): 0.77%
- percentage of injected dose in right salivary gland ([1]; IV, 24 hours): 0.98%
- percentage of injected dose in stomach ([1]; IV, 24 hours): 5.02%
- percentage of injected dose in thyroid ([1]; IV, 24 hours): 0.24%
- percentage of injected dose at injection site ([1]; SC, 10 min): 27.27%
- percentage of injected dose in bladder ([1]; SC, 10 min): 0.13%
- percentage of injected dose in heart ([1]; SC, 10 min): 0.24%
- percentage of injected dose in left salivary gland ([1]; SC, 10 min): 0.12%
- percentage of injected dose in lung ([1]; SC, 10 min): 0.92%
- percentage of injected dose in right salivary gland ([1]; SC, 10 min): 0.13%
- percentage of injected dose in stomach ([1]; SC, 10 min): 0.53%
- percentage of injected dose in thyroid ([1]; SC, 10 min): 0.00%
- percentage of injected dose at injection site ([1]; SC, 60 min): 17.57%
- percentage of injected dose in bladder ([1]; SC, 60 min): 2.29%
- percentage of injected dose in heart ([1]; SC, 60 min): 1.61%
- percentage of injected dose in left salivary gland ([1]; SC, 60 min): 0.45%
- percentage of injected dose in lung ([1]; SC, 60 min): 4.86%
- percentage of injected dose in right salivary gland ([1]; SC, 60 min): 0.45%
- percentage of injected dose in stomach ([1]; SC, 60 min): 9.24%
- percentage of injected dose in thyroid ([1]; SC, 60 min): 0.00%
- percentage of injected dose at injection site ([1]; SC, 6 hours): 0.00%
- percentage of injected dose in bladder ([1]; SC, 6 hours): 2.75%
- percentage of injected dose in heart ([1]; SC, 6 hours): 1.61%
- percentage of injected dose in left salivary gland ([1]; SC, 6 hours): 1.44%
- percentage of injected dose in lung ([1]; SC, 6 hours): 4.57%
- percentage of injected dose in right salivary gland ([1]; SC, 6 hours): 1.33%
- percentage of injected dose in stomach ([1]; SC, 6 hours): 14.37%
- percentage of injected dose in thyroid ([1]; SC, 6 hours): 0.96%
- percentage of injected dose at injection site ([1]; SC, 24 hours): 0.00%
- percentage of injected dose in bladder ([1]; SC, 24 hours): 3.75%
- percentage of injected dose in heart ([1]; SC, 24 hours): 0.70%
- percentage of injected dose in left salivary gland ([1]; SC, 24 hours): 2.67%
- percentage of injected dose in lung ([1]; SC, 24 hours): 2.01%
- percentage of injected dose in right salivary gland ([1]; SC, 24 hours): 2.81%
- percentage of injected dose in stomach ([1]; SC, 24 hours): 7.32%
- percentage of injected dose in thyroid ([1]; SC, 24 hours): 0.61%
- organ with the highest uptake ([1]; all three injection routes, progressive increase until 4 to 6 hours): stomach
- radioactivity in the intestines [2]: small activity
- accumulation in the kidneys ([2]; 1 h and 6 h post-injection): no kidney accumulation
- accumulation in the stomach ([2]; 1 h and 6 h post-injection): High accumulation
- radioactivity in the bladder ([2]; 1 h and 6 h post-injection): accumulation was higher
- uptake in the lungs ([2]; 1 h and 6 h post-injection): distinct radioactive uptake
- uptake in the parotid glands ([2]; 1 h and 6 h post-injection): high uptake
- uptake in the thyroid gland ([2]; 1 h and 6 h post-injection): very high accumulation
SMILES: [O]=[99Tc](=[O])(=[O])[O-] [control product, ^99mTc Pertechnetate]
- organs with radioactivity uptake ([1]; intramuscular and subcutaneous administration): heart, lung, stomach, bladder, thyroid and salivary glands
- organs in which radioactivity accumulated ([1]; intravenous injection): heart, lung, liver, stomach, bladder, thyroid and salivary glands
- organs in which accumulation was predominantly observed ([2]; 1 h post-injection scans): stomach, thyroid, bladder and parotid glands
